Assays:
Format in all cases: functional
Rattus norvegicus [1] = test: Compound evaluated for hypoglycemic activity by lowering blood glucose in normal rats by 20% after oral administration; inactive (less than 10% blood sugar decrease)
Rattus norvegicus [2] = test: Hypoglycemic activity by lowering blood glucose in normal rats by 20% after oral administration.
Rattus norvegicus [3] = test: Compound evaluated for hypoglycemic activity by lowering blood glucose in streptozotocin-diabetic rats by 20% after oral administration; Highest dose tested; Inactive(less than 10% blood sugar decrease)
Rattus norvegicus [4] = test: Compound evaluated for hypoglycemic activity by lowering blood glucose in streptozotocin-diabetic rats by 20% after oral administration; Highest dose tested
Rattus norvegicus [5] = test: Hypoglycemic activity by lowering blood glucose in normal rats by 50% after oral administration.
Rattus norvegicus [6] = test: Compound evaluated for hypoglycemic activity by lowering blood glucose in normal rats by 20% after oral administration; highest dose tested;inactive(less than 10% blood sugar decrease)
Rattus norvegicus [7] = test: Compound evaluated for hypoglycemic activity by lowering blood glucose in normal rats by 50% after oral administration; inactive(less than 10% blood sugar decrease)
Rattus norvegicus [8] = test: Compound evaluated for hypoglycemic activity by lowering blood glucose in streptozotocin-diabetic rats by 20% after oral administration
Rattus norvegicus [9] = test: Compound evaluated for hypoglycemic activity by lowering blood glucose in normal rats by 20% after oral administration; Inactive (less than 10% blood sugar decrease)
Rattus norvegicus [10] = test: Compound evaluated for hypoglycemic activity by lowering blood glucose in normal rats by 20% after oral administration
Rattus norvegicus [11] = test: Compound evaluated for hypoglycemic activity by lowering blood glucose in streptozotocin-diabetic rats by 20% after oral administration; Inactive(less than 10% blood sugar decrease)
Rattus norvegicus [12] = test: Compound evaluated for hypoglycemic activity by lowering blood glucose in normal rats by 50% after oral administration
Rattus norvegicus [13] = test: Compound evaluated for hypoglycemic activity by lowering blood glucose in normal rats by 20% after oral administration (highest dose tested)

SMILES: Cc1ncsc1C(=O)NCCc1ccc(S(=O)(=O)N2CCN(C3CCCCC3)C2=N)cc1
- ED20 (Rattus norvegicus [1]): > 0.22 mmol/kg

SMILES: N=C1N(C2CCCCC2)CCN1S(=O)(=O)c1ccc(CCNC(N)=O)cc1
- ED20 (Rattus norvegicus [2]): 0.39 mmol/kg
- ED20 (Rattus norvegicus [3]): > 0.76 mmol/kg

SMILES: CN(C)C(C(=O)NCCc1ccc(S(=O)(=O)N2CCN(C3CCCCC3)C2=N)cc1)c1ccccc1 (stereo not given)
- ED20 (Rattus norvegicus [4]): > 0.55 mmol/kg
- ED20 (Rattus norvegicus [2]): 0.037 mmol/kg
- ED50 (Rattus norvegicus [5]): 170 µmol/kg

SMILES: N=C(N)NC(=N)NCCc1ccccc1 [PHENFORMIN]
- ED20 (Rattus norvegicus [6]): > 1 mmol/kg
- ED50 (Rattus norvegicus [7]): > 1000 µmol/kg
- ED20 (Rattus norvegicus [8]): 0.16 mmol/kg

SMILES: COCC(=O)NCCc1ccc(S(=O)(=O)N2CCN(C3CCCCC3)C2=N)cc1
- ED20 (Rattus norvegicus [9]): > 0.92 mmol/kg

SMILES: CC[S+]([O-])CCC(=O)NCCc1ccc(S(=O)(=O)N2CCN(C3CCCCC3)C2=N)cc1 (stereo not given)
- ED20 (Rattus norvegicus [4]): > 0.62 mmol/kg
- ED20 (Rattus norvegicus [2]): 0.031 mmol/kg
- ED50 (Rattus norvegicus [5]): 200 µmol/kg

SMILES: CCCCNC(=O)NS(=O)(=O)c1ccc(C)cc1 [TOLBUTAMIDE]
- ED20 (Rattus norvegicus [10]): 0.056 mmol/kg
- ED20 (Rattus norvegicus [11]): > 1 mmol/kg
- ED50 (Rattus norvegicus [12]): 300 µmol/kg

SMILES: C[S+]([O-])CC(=O)NCCc1ccc(S(=O)(=O)N2CCN(C3CCCCC3)C2=N)cc1 (stereo not given)
- ED20 (Rattus norvegicus [2]): 0.12 mmol/kg
- ED20 (Rattus norvegicus [3]): > 0.66 mmol/kg

SMILES: N=C1N(C2CCCCC2)CCN1S(=O)(=O)c1ccc(CCNC(=O)c2ccc[n+]([O-])c2)cc1
- ED20 (Rattus norvegicus [10]): 0.042 mmol/kg
- ED20 (Rattus norvegicus [11]): > 0.64 mmol/kg

SMILES: CCC[S+]([O-])CC(=O)NCCc1ccc(S(=O)(=O)N2CCN(C3CCCCC3)C2=N)cc1 (stereo not given)
- ED20 (Rattus norvegicus [2]): 0.071 mmol/kg
- ED20 (Rattus norvegicus [3]): > 0.62 mmol/kg

SMILES: N=C1N(C2CCCCC2)CCN1S(=O)(=O)c1ccc(CCNC(=O)c2ccccn2)cc1
- ED20 (Rattus norvegicus [13]): > 0.83 mmol/kg

SMILES: N=C1N(C2CCCCC2)CCN1S(=O)(=O)c1ccc(CCNC(=O)c2ccccc2)cc1
- ED20 (Rattus norvegicus [10]): 0.021 mmol/kg
- ED50 (Rattus norvegicus [12]): 200 µmol/kg

Source: ChEMBL document CHEMBL1122254, “Sulfonyliminoimidazolidines. A new class of oral hypoglycemic agents. 1. 1-[[p-[2-(acylamino)ethyl]phenyl]sulfonyl]-2-iminoimidazolidines” (1983)
